Assay results: PubChem BioAssay AID1963865 (Molecular Pharmacology Branch, DTP, NCI, 2024)
pIC50: −log10 of the molar value.

Tested on: KRAS PDC multicell spheroid viability
Assay: Anticancer human tumor 825966-067-R-J1-PDC patient-derived colon carcinoma cell line growth inhibition [KRAS2]
Details: for pIC50: curve of first compound; for viability, T/C: stronger effect = lower value
Text: Multicellular complex tumor spheroid response to RAS pathway inhibitors in combination with a targeted agents in patient-derived cell lines with oncogenic KRAS variants from multiple cancer types
A high-throughput screen of multi-cell type tumor spheroids was designed to identify active combinations of targeted small molecules and KRAS pathway inhibitors. Complex spheroids include a stromal component modeled by human endothelial cells (HUVEC) and fibroblasts modeled by human mesenchymal stem cells (MSCs). The concentration ranges selected for each drug and investigational agent were based upon clinically achievable concentrations if the clinical Cmax of the agent was known.
Compounds. The drugs and investigational agents: BI-3406 (NSC825286), BAY-293 (NSC824723), batoprotafib (TNO155; NSC825523), sotorasib (AMG 510; NSC818433), MRTX1257 (NSC819558), elimusertib (BAY 1895344; NSC800525), molibresib (GSK525762; NSC774829), temuterkib (LY3214996; NSC803410), venetoclax (NSC766270), alisertib (NSC759677), olaparib (NSC753686), talazoparib (NSC767125), erdafitinib (NSC781556), ipatasertib (NSC767898), cabozantinib (NSC761068), nintedanib (NSC756659), abemaciclib (NSC768073), docetaxel (NSC628503), trametinib (NSC758246), and sapanisertib (NSC764658) were obtained from the National Cancer Institute (NCI) Developmental Therapeutics Program Chemical Repository. The FDA-approved anticancer drug set is available from the Developmental Therapeutics Program. […] The stock solutions were prepared in dimethyl sulfoxide (DMSO, Sigma-Aldrich, St. Louis, MO, cat. D2650) at 800-fold the tested concentration and stored at -70 degrees C prior to their use. All drugs and investigational agents were tested over a range starting from a high concentration at or near the clinical Cmax and decreasing in half-log increments. If the clinical Cmax for an agent had not been determined, the highest concentration tested was 10 microM.
Cell Culture. All cells were maintained in an incubator at 37 degrees C and 5% CO2 with 95% humidity. The PDC lines were cultured according to standard operating procedures established by the NCI PDMR (https://pdmr.cancer.gov/sops/default.htm). Briefly, all PDCs were thawed and cultured in Matrigel-coated flasks prepared with a working solution of 1X Ham's F-12 nutrient mix, without supplementation (Invitrogen, Waltham, MA, cat. 11765054), 100 U/mL penicillin-streptomycin (Invitrogen, cat. 15140122), and 2.5% Matrigel (Corning Inc., Corning, NY, cat. 354248) for the first three passages. All PDCs were cultured in complete DMEM/F-12 media containing advanced DMEM/F-12 (Invitrogen, cat. 12634028), 4.9% defined fetal bovine serum, heat inactivated (HyClone Laboratories Inc., Logan, UT, cat. SH30070.03HI), 389 ng/mL hydrocortisone (Sigma-Aldrich, cat. H4001), 9.7 ng/mL human EGF recombinant protein (Invitrogen, cat. PHG0313), 23.4 microg/mL adenine (Sigma-Aldrich, cat. A2786), 97.3 U/mL penicillin-streptomycin (Invitrogen, cat. 15140122), 1.9 mM L-glutamine (Invitrogen, cat. 25030081), and 9.7 microM Y-27632 dihydrochloride (Tocris Bioscience, Bristol, United Kingdom, cat. 1254). The PDCs were cultured in complete DMEM/F12 media without 9.7 microM Y-27632 dihydrochloride for at least two passages prior to the screen. The established cell line HOP-62 was cultured in RPMI 1640 medium, HEPES (Invitrogen, cat. 22400105) with 10% defined fetal bovine serum (HyClone Laboratories Inc., cat. SH30070.03) and 2 mM L-glutamine (Invitrogen, cat. 25030081). The pooled donor HUVEC were cultured in endothelial cell growth medium 2 (PromoCell, Heidelberg, Germany, cat. C-22011) and the hMSC were cultured in mesenchymal stem cell growth medium 2 (PromoCell, cat. C-28009). For all experiments, HUVEC and hMSC were used at passages </=5, while the malignant cell lines were used at passages </=15. […]

[1] = second compound 0.1 µM, first compound 0.0316 µM
[2] = second compound 0.1 µM, first compound 0.1 µM
[3] = second compound 0.1 µM, first compound 0.316 µM
[4] = second compound 0.1 µM, first compound 1 µM
[5] = second compound 0.1 µM, first compound 3.16 µM
[6] = second compound 0.1 µM, first compound 10 µM
[7] = second compound 0.316 µM, first compound 0.0316 µM
[8] = second compound 0.316 µM, first compound 0.1 µM
[9] = second compound 0.316 µM, first compound 0.316 µM
[10] = second compound 0.316 µM, first compound 1 µM
[11] = second compound 0.316 µM, first compound 3.16 µM
[12] = second compound 0.316 µM, first compound 10 µM
[13] = second compound 1 µM, first compound 0.0316 µM
[14] = second compound 1 µM, first compound 0.1 µM
[15] = second compound 1 µM, first compound 0.316 µM
[16] = second compound 1 µM, first compound 1 µM
[17] = second compound 1 µM, first compound 3.16 µM
[18] = second compound 1 µM, first compound 10 µM
[19] = second compound 3.16 µM, first compound 0.0316 µM
[20] = second compound 3.16 µM, first compound 0.1 µM
[21] = second compound 3.16 µM, first compound 0.316 µM
[22] = second compound 3.16 µM, first compound 1 µM
[23] = second compound 3.16 µM, first compound 3.16 µM
[24] = second compound 3.16 µM, first compound 10 µM
[25] = second compound 10 µM, first compound 0.0316 µM
[26] = second compound 10 µM, first compound 0.1 µM
[27] = second compound 10 µM, first compound 0.316 µM
[28] = second compound 10 µM, first compound 1 µM
[29] = second compound 10 µM, first compound 3.16 µM
[30] = second compound 10 µM, first compound 10 µM
[31] = second compound 0.1 µM, first compound 0.00316 µM
[32] = second compound 0.1 µM, first compound 0.01 µM
[33] = second compound 0.316 µM, first compound 0.00316 µM
[34] = second compound 0.316 µM, first compound 0.01 µM
[35] = second compound 1 µM, first compound 0.00316 µM
[36] = second compound 1 µM, first compound 0.01 µM
[37] = second compound 3.16 µM, first compound 0.00316 µM
[38] = second compound 3.16 µM, first compound 0.01 µM
[39] = second compound 10 µM, first compound 0.00316 µM
[40] = second compound 10 µM, first compound 0.01 µM
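Further: spheroids exposed to compounds for 7 days.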
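Wherever viability, T/C is given: 100% = DMSO vehicle control viability.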

| SMILES | pIC50 (second compound 0.1 µM) | pIC50 (second compound 0.316 µM) | pIC50 (second compound 1 µM) | pIC50 (second compound 3.16 µM) | pIC50 (second compound 10 µM) | viability, T/C [1] | viability, T/C [2] | viability, T/C [3] | viability, T/C [4] | viability, T/C [7] | viability, T/C [8] | viability, T/C [9] | viability, T/C [10] | viability, T/C [13] | viability, T/C [14] | viability, T/C [15] | viability, T/C [19] | viability, T/C [20] | viability, T/C [25] | viability, T/C [26] | further results |
| --- | --- | --- | --- | --- | --- | --- | --- | --- | --- | --- | --- | --- | --- | --- | --- | --- | --- | --- | --- | --- | --- |
| CC(C)NCC(C(=O)N1CCN(c2ncnc3c2C(C)CC3O)CC1)c1ccc(Cl)cc1 (stereo not given) + C=CC(=O)N1CCN(c2nc(=O)n(-c3c(C)ccnc3C(C)C)c3nc(-c4c(O)cccc4F)c(F)cc23)C(C)C1 | 5.64 | 5.79 | 5.83 | 5.80 | 6.63 | 105% | 139% | 155% | 93.6% | 104% | 127% | 136% | 73.7% | 88.7% | 121% | 120% | 97.2% | 130% | 76.2% | 150% | viability, T/C [5]: 35.2%; viability, T/C [6]: 10.4%; viability, T/C [11]: 26.6%; viability, T/C [12]: 10.6%; viability, T/C [16]: 69%; viability, T/C [17]: 16.9%; viability, T/C [18]: 6.64%; viability, T/C [21]: 110%; viability, T/C [22]: 68.5%; viability, T/C [23]: 23.6%; viability, T/C [24]: 9.85%; viability, T/C [27]: 27.9%; viability, T/C [28]: 14.5%; viability, T/C [29]: 6.65%; viability, T/C [30]: 2.19% |
| CC1(C)CCC(CN2CCN(c3ccc(C(=O)NS(=O)(=O)c4ccc(NCC5CCOCC5)c([N+](=O)[O-])c4)c(Oc4cnc5[nH]ccc5c4)c3)CC2)=C(c2ccc(Cl)cc2)C1 + C=CC(=O)N1CCN(c2nc(=O)n(-c3c(C)ccnc3C(C)C)c3nc(-c4c(O)cccc4F)c(F)cc23)C(C)C1 | 5.69 | 5.66 | 5.68 | 5.75 | 5.72 | 90.5% | 99.3% | 115% | 95.9% | 93.6% | 86.6% | 103% | 94.7% | 102% | 108% | 81.2% | 76.4% | 103% | 89.7% | 98.1% | viability, T/C [5]: 20.8%; viability, T/C [6]: 6.39%; viability, T/C [11]: 29.2%; viability, T/C [12]: 5.85%; viability, T/C [16]: 104%; viability, T/C [17]: 21.3%; viability, T/C [18]: 1.24%; viability, T/C [21]: 102%; viability, T/C [22]: 81.1%; viability, T/C [23]: 18.2%; viability, T/C [24]: 2.96%; viability, T/C [27]: 107%; viability, T/C [28]: 110%; viability, T/C [29]: 9.64%; viability, T/C [30]: 1.37% |
| CCN1CCN(Cc2ccc(Nc3ncc(F)c(-c4cc(F)c5nc(C)n(C(C)C)c5c4)n3)nc2)CC1 + C=CC(=O)N1CCN(c2nc(=O)n(-c3c(C)ccnc3C(C)C)c3nc(-c4c(O)cccc4F)c(F)cc23)C(C)C1 | < 6.00 | < 6.00 | < 6.00 | < 6.00 | 6.13 | 101% | 96.3% | 143% | 119% | 112% | 118% | 153% | 111% | 102% | 114% | 163% | 126% | 121% | 100% | 143% | viability, T/C [31]: 90%; viability, T/C [32]: 107%; viability, T/C [33]: 80.8%; viability, T/C [34]: 85.9%; viability, T/C [35]: 87.3%; viability, T/C [36]: 84.8%; viability, T/C [16]: 83%; viability, T/C [37]: 89.5%; viability, T/C [38]: 92.4%; viability, T/C [21]: 155%; viability, T/C [22]: 76.8%; viability, T/C [39]: 104%; viability, T/C [40]: 102%; viability, T/C [27]: 117%; viability, T/C [28]: 27.9% |
| Cn1ncnc1[C@H]1c2n[nH]c(=O)c3cc(F)cc(c23)N[C@@H]1c1ccc(F)cc1 + C=CC(=O)N1CCN(c2nc(=O)n(-c3c(C)ccnc3C(C)C)c3nc(-c4c(O)cccc4F)c(F)cc23)C(C)C1 | < 7.00 | < 7.00 | < 7.00 | < 7.00 | < 7.00 | 90.1% | 82.3% | – | – | 90.7% | 72.3% | – | – | 102% | 80.6% | – | 72% | 87.7% | 115% | 76.9% | viability, T/C (second compound 0.1 µM, first compound 0.000316 µM): 132%; viability, T/C (second compound 0.1 µM, first compound 0.001 µM): 100%; viability, T/C [31]: 98.2%; viability, T/C [32]: 89.6%; viability, T/C (second compound 0.316 µM, first compound 0.000316 µM): 100%; viability, T/C (second compound 0.316 µM, first compound 0.001 µM): 99.9%; viability, T/C [33]: 143%; viability, T/C [34]: 103%; viability, T/C (second compound 1 µM, first compound 0.000316 µM): 100%; viability, T/C (second compound 1 µM, first compound 0.001 µM): 91.7%; viability, T/C [35]: 75.2%; viability, T/C [36]: 79.3%; viability, T/C (second compound 3.16 µM, first compound 0.000316 µM): 109%; viability, T/C (second compound 3.16 µM, first compound 0.001 µM): 102%; viability, T/C [37]: 101%; viability, T/C [38]: 98.3%; viability, T/C (second compound 10 µM, first compound 0.000316 µM): 92.4%; viability, T/C (second compound 10 µM, first compound 0.001 µM): 124%; viability, T/C [39]: 93.2%; viability, T/C [40]: 111% |
